For 30 compounds, EC50 results are on record in patent publication US11230526B1, “Cylcoalkenyl derivatives useful as agonists of the GPR120 and/or GPR40 receptors” (Janssen Pharmaceutica NV, priority 2018, dated 2022).

Structures are written as SMILES.

In the assay the target is T1, short form of the GPR120 receptor (Homo sapiens, UniProt Q5NUL3).
T1 construct: host or cells: PathHunter CHO-K1 GPR120S β-Arrestin Cell Line
T1 sequence (Q5NUL3 whole entry): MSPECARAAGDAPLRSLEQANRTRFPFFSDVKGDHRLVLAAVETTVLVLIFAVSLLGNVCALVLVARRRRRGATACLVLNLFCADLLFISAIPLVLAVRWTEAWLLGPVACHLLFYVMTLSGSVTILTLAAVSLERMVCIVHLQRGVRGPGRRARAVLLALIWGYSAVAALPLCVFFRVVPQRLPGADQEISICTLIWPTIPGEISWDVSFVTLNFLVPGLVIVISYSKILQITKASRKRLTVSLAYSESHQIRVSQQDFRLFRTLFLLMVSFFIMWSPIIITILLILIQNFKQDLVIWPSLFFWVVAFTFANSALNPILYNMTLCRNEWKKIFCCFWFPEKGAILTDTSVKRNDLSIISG
T1 sequence (P32121 whole entry partner): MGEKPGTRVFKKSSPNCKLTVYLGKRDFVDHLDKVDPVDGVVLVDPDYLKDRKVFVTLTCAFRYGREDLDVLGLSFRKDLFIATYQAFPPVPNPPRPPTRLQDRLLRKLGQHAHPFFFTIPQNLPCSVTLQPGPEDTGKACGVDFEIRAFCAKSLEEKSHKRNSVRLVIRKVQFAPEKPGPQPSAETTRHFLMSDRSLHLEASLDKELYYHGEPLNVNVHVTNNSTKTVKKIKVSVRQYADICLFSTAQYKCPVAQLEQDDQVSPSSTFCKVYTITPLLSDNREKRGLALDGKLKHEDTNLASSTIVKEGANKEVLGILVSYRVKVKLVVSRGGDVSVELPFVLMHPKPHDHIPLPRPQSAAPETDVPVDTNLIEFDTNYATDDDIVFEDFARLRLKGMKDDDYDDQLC
As to the kind of experiment: Human GPR120 DiscoveRx PathHunter Beta-Arrestin assay, Procedure β-arrestin B. It counts as cell-based. The text has this: Human GPR120 DiscoveRx PathHunter® Beta-Arrestin Assay Assay Principle:
The binding of an agonist (medium/long chain fatty acids or small molecule agonists) to the G-protein-coupled receptor GPR120 activates phospholipase C, leading to release of intracellular Ca^+2 through the generation of inositol 1,4,5-trisphosphate (InsP3 or IP3). GPR120 activation can also trigger intracellular signaling via recruitment of Beta-Arrestin. In the present method, agonist-induced activation of the human GPR120 receptor is monitored through the use of PathHunter® CHO-K1 GPR120 Beta-Arrestin Cell Line engineered by DiscoveRx, as detailed below. The cell lines are designed to co-express both the ProLink/Enzyme Donor (PK)-tagged GPCR and the Enzyme […] (EA)-tagged Beta-Arrestin fusion proteins. Upon GPR120 receptor stimulation/activation, the EA-tagged Beta-Arrestin portion is translocated to the tagged receptor, where the two enzyme fragments are brought within close proximity. Under these conditions, these fragments can interact and form an active Beta-gal enzyme complex through Enzyme Fragment Complementation (EFC). This active Beta-gal complex can enzymatically hydrolyse the substrate to produce a detectable light signal; therefore, activation as a function of agonist concentration can be expressed as an EC50 value to determine relative compound activities. This in vitro assay therefore serves to assess compound agonist activity of the GPR120.
In Procedure β-arrestin B the cells used were PathHunter® CHO-K1 GPR120S β-Arrestin Cell Line, expressing the short form of the GPR120 receptor (Accession #[…]), with 5000 cells/well.
The selected CHO-K1 GPR120 β-Arrestin cells were cultured in Ham's F12 media supplemented with 10% fetal bovine serum (FBS), 1% Glutamine, 1×p/s, 800 μg/mL G418 and 300 μg/mL Hygromycin B (for selection). Cell stocks were maintained and grown in a sub-confluent state using standard cell culture procedures. The day before the experiment, the cells were harvested with non-enzymatic cell dissociation buffer and re-suspended in complete growth media at the desired concentration. A Corning 384-plate was then seeded with the proper number of cells in a volume of 25 μL, per well. The seeded plates were incubated overnight at 37° C.
On the day of the experiment, the Assay Buffer containing (a) HBSS with Ca^++ and Mg^++, (b) 20 mM HEPES, and (c) 0.1% BSA stabilizer (pH 7.4) was prepared. The growth medium was gently removed from the cell plates and 20 μL of Assay Buffer added to each well. The plate was then incubated at 37° C. for 60 min. Test compounds were serially diluted in Assay Buffer to desired concentrations (more particularly to one or more of the following μM concentrations: 25, 12.5, 6.25, 3.12, 1.56, 0.78, 0.39, 0.19, 0.10, 0.05, 0.02, 0.01). Five μL of compound dilution was then added to each well and the plate incubated at 37° C. for 90 min. The detection reagents were prepared according to the manufacture's instruction. Twelve μL of the detection reagents were added to each well and the plate incubated at room temperature for 60 min.
The plates were read on an EnVision instrument, using Protocol name: Luminescence, Plate type: 384 Costar, Measurement height: 3 mm, Measurement time: 1 s, Aperture: 384 Plate aperture. The % Activity relative to the positive control was calculated using the following equation:
The % Activity values were plotted versus the concentration of test compound and fitted to a sigmoidal dose-response curve with a Hill slope=1 (fixed value) using nonlinear regression with GraphPad Prism 5.0 to calculate the EC50 values. The Fitting Equation was: Y=Bottom+(Top-Bottom)/(1+10^((Log EC50−X)*HillSlope)), where X is the log of the concentration and Y is the response.
Regarding `Cc1c(CCC(=O)O)ccc(OCC2=C(c3ccc(F)cc3)CCC2)c1C` [Compound 4, 3-[4-[[2-(4-fluorophenyl)cyclopenten-1-yl]methoxy]-2,3-dimethyl-phenyl]Propanoic Acid], the response was half-maximal at 164 nM (EC50). On to `O=C(O)CCc1cc(F)c(OCC2=C(c3ccc(Cl)cc3)CCCC2)c(F)c1` [Compound 510, 3-[4-[[2-(4-chlorophenyl)cyclohexen-1-yl]methoxy]-3,5-difluoro-phenyl]Propanoic Acid], for which the EC50 (in general, the concentration at which the effect is half-maximal) was determined as 210 nM. `Cc1ccc(C2=C(COc3c(F)cc(CCC(=O)O)cc3F)CCCC2)cc1F` [Compound 493, 3-[3,5-difluoro-4-[[2-(3-fluoro-4-methyl-phenyl)cyclohexen-1-yl]methoxy]phenyl]Propanoic Acid] registered an EC50 of 356 nM.

Compound `Cc1c(CCC(=O)O)ccc(OCC2=C(c3ccc(Cl)c(Cl)c3)CCC2)c1C` [Compound 66, 3-[4-[[2-(3,4-dichlorophenyl)cyclopenten-1-yl]methoxy]-2,3-dimethyl-phenyl]Propanoic Acid] registered an EC50 of 629 nM. Compound `Cc1ccc(C2=C(COc3ccc(CCC(=O)O)c(C)c3C)CCCC2)cc1F` [Compound 496, 3-[4-[[2-(3-fluoro-4-methyl-phenyl)cyclohexen-1-yl]methoxy]-2,3-dimethyl-phenyl]Propanoic Acid] registered an EC50 of 352 nM.

The compound `Cc1ccc(C2=C(COc3ccc(CCC(=O)O)c(F)c3F)CCCC2)cc1F` [Compound 494, 3-[2,3-difluoro-4-[[2-(3-fluoro-4-methyl-phenyl)cyclohexen-1-yl]methoxy]phenyl]Propanoic Acid] came in with an EC50 of 401 nM.

With `Cc1c(CCC(=O)O)ccc(OCC2=C(c3cccs3)CCC2)c1C` [Compound 77, 3-[2,3-dimethyl-4-[[2-(2-thienyl)cyclopenten-1-yl]methoxy]phenyl]Propanoic Acid], it took 369 nM to reach a half-maximal effect (EC50). As for `Cc1c(CCC(=O)O)ccc(OCC2=C(c3ccc(OC(F)(F)F)cc3)CCC2)c1C` [Compound 20, 3-(2,3-dimethyl-4-((2-(4-(trifluoromethoxy)phenyl)cyclopent-1-en-1-yl)methoxy)phenyl)Propanoic Acid], the figure is more than 5000 nM; as for `Cc1c(CCC(=O)O)ccc(OCC2=C(c3cncs3)CCC2)c1C` [Compound 88, 3-[2,3-dimethyl-4-[(2-thiazol-5-ylcyclopenten-1-yl)methoxy]phenyl]Propanoic Acid], 588 nM; as for `Cc1c(CCC(=O)O)ccc(OCC2=C(c3ccc(Cl)cc3Cl)CCC2)c1C` [Compound 133, 3-[4-[[2-(2,4-dichlorophenyl)cyclopenten-1-yl]methoxy]-2,3-dimethyl-phenyl]Propanoic Acid], 1130 nM. As for `O=C(O)CCc1ccc(OCC2=C(c3ccc(Cl)cc3)CCCC2)c(F)c1` [Compound 511, 3-[4-[[2-(4-chlorophenyl)cyclohexen-1-yl]methoxy]-3-fluoro-phenyl]Propanoic Acid], the figure is 187 nM; as for `Cc1c(CCC(=O)O)ccc(OCC2=C(c3ccc(Cl)cc3)CCC2)c1C` [Compound 15, 3-(4-((2-(4-chlorophenyl)cyclopent-1-en-1-yl)methoxy)-2,3-dimethylphenyl)Propanoic Acid], 122 nM; as for `Cc1c(CCC(=O)O)ccc(OCC2=C(c3ccc(N(C)C)cc3)CCCC2)c1C` [Compound 512, 3-[4-[[2-(4-dimethylaminophenyl)cyclohexen-1-yl]methoxy]-2,3-dimethyl-phenyl]Propanoic Acid], 803 nM. Consider `Cc1cc(CCC(=O)O)ccc1OCC1=C(c2ccc(Cl)cc2)CCC(F)(F)C1` [Compound 467, 3-(4-((4′-chloro-4,4-difluoro-3,4,5,6-tetrahydro-[1,1′-biphenyl]-2-yl)methoxy)-3-methylphenyl)Propanoic Acid], for which a half-maximal response (EC50) required 104 nM. Regarding `Cc1c(CCC(=O)O)ccc(OCC2=C(c3ccccc3F)CCC2)c1C` [Compound 124, 3-[4-[[2-(2-fluorophenyl)cyclopenten-1-yl]methoxy]-2,3-dimethyl-phenyl]Propanoic Acid], the 50% effective concentration (EC50) worked out at 235 nM. As for `Cc1c(CCC(=O)O)ccc(OCC2=C(c3ncccn3)CCC2)c1C` [Compound 105, 3-[2,3-dimethyl-4-[(2-pyrimidin-2-ylcyclopenten-1-yl)methoxy]phenyl]Propanoic Acid], the figure is 445 nM. To `O=C(O)CCc1ccc(OCC2=C(c3ccc(Cl)cc3)CCC2)cc1F` [Compound 47, 3-[4-[[2-(4-chlorophenyl)cyclopenten-1-yl]methoxy]-2-fluoro-phenyl]Propanoic Acid] belongs 273 nM.

In turn, `O=C(O)CCc1ccc(OCC2=C(c3ccc(Cl)cc3)CCCC2)c2c1CCC2` [Compound 514, 3-[7-[[2-(4-chlorophenyl)cyclohexen-1-yl]methoxy]indan-4-yl]Propanoic Acid] showed a 50% effective concentration (EC50) of 252 nM. To `Cc1ccc(C2=C(COc3ccc(CCC(=O)O)c(C)c3C)CCC2)cc1C` [Compound 106, 3-(4-((2-(3,4-dimethylphenyl)cyclopent-1-en-1-yl)methoxy)-2,3-dimethylphenyl)Propanoic Acid] belongs 853 nM; to `Cc1ccc(C2=C(COc3ccc(CCC(=O)O)c(F)c3F)CCC2)c(C)c1` [Compound 72, 3-(4-((2-(2,4-dimethylphenyl)cyclopent-1-en-1-yl)methoxy)-2,3-difluorophenyl)Propanoic Acid], 648 nM. To `Cc1c(CCC(=O)O)ccc(OCC2=C(c3cccc(Cl)c3)CCCC2)c1C` [Compound 509, 3-[4-[[2-(3-chlorophenyl)cyclohexen-1-yl]methoxy]-2,3-dimethyl-phenyl]Propanoic Acid] belongs 1790 nM.

Turning to `Cc1cc(OCC2=C(c3ccc(Cl)cc3)CCC2)ccc1CCC(=O)O` [Compound 131, 3-[4-[[2-(4-chlorophenyl)cyclopenten-1-yl]methoxy]-2-methyl-phenyl]Propanoic Acid], the EC50 worked out at 566 nM. To `CCc1ccc(C2=C(COc3c(F)cc(CCC(=O)O)cc3F)CCC2)cc1` [Compound 16, 3-(4-((2-(4-ethylphenyl)cyclopent-1-en-1-yl)methoxy)-3,5-difluorophenyl)Propanoic Acid] belongs 149 nM. In turn, `Cc1ccc(C2=C(COc3ccc(CCC(=O)O)c(C)c3C)CCC2)c(C)c1` [Compound 82] yielded an EC50 of 1090 nM. As for `Cc1c(CCC(=O)O)ccc(OCC2=C(c3ccc(Cl)cc3)CCCC2)c1C` [Compound 474, 3-[4-[[2-(4-chlorophenyl)cyclohexen-1-yl]methoxy]-2,3-dimethyl-phenyl]Propanoic Acid], the figure is 1030 nM; as for `Cc1c(CCC(=O)O)ccc(OCC2=C(c3ccccc3)CCC2)c1C` [Compound 23, 3-(2,3-dimethyl-4-((2-phenylcyclopent-1-en-1-yl)methoxy)phenyl)Propanoic Acid], 337 nM. `Cc1ccc(C2=C(COc3c(F)cc(CCC(=O)O)cc3F)CCC2)cc1C` [Compound 84, 3-(4-((2-(3,4-dimethylphenyl)cyclopent-1-en-1-yl)methoxy)-3,5-difluorophenyl)Propanoic Acid] registered an EC50 of 533 nM.

`Cc1c(CCC(=O)O)ccc(OCC2=C(c3nccs3)CCC2)c1C` [Compound 79, 3-[2,3-dimethyl-4-[(2-thiazol-2-ylcyclopenten-1-yl)methoxy]phenyl]Propanoic Acid] yielded an EC50 of 596 nM.

The compound `O=C(O)CCc1ccc(OCC2=C(c3ccc(Cl)cc3)CCC(F)(F)C2)c(F)c1F` [Compound 503, 3-[4-[[2-(4-chlorophenyl)-5,5-difluoro-cyclohexen-1-yl]methoxy]-2,3-difluoro-phenyl]Propanoic Acid] yielded a concentration for a half-maximal effect (EC50) of 191 nM. To `Cc1cc(CCC(=O)O)ccc1OCC1=C(c2ccc(Cl)c(F)c2)CCC1` [Compound 159, 3-(4-((2-(4-chloro-3-fluorophenyl)cyclopent-1-en-1-yl)methoxy)-3-methylphenyl)Propanoic Acid] belongs 56 nM.
